Experiments:
[1] = system: Puccinia recondita f. Sp. Tritici; assay: Puccinia recondita f. sp. tritici / wheat / leaf disc preventative (brown rust); type: in vivo; details: foliar, 200 ppm in the applied formulation, wheat leaf segments cv. Kanzler, preventative (inoculated 1 day after application), compared to untreated, read-out: disease control
Outline: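 Wheat leaf segments (cv. Kanzler) on water agar were sprayed with test compound (DMSO stock diluted in 0.025% Tween20/water), then spore-inoculated 1 day later. Incubation at 19° C., 75% rh, 12 h light/12 h dark; percent disease control versus untreated segments scored 7 to 9 days after application. Tested at 200 ppm.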

[2] = system: Puccinia recondita f. Sp. Tritici; assay: Puccinia recondita f. sp. tritici / wheat / leaf disc curative (brown rust); type: in vivo; details: foliar, 24 h, 200 ppm in the applied formulation, wheat leaf segments cv. Kanzler, curative (applied 1 day after inoculation), compared to untreated, read-out: disease control
Outline: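 Spray application came one day after spore inoculation of Kanzler wheat leaf segments kept on agar. Conditions: 19° C, 75% relative humidity, dark before treatment and 12 h light/12 h dark after. Efficacy = % disease control compared with untreated, 6–8 days post-application.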

[3] = system: Glomerella lacenarium (Colletotrichum lagenarium); assay: Glomerella lagenarium liquid culture / cucumber / preventative (anthracnose); type: cell-based; details: Colletotrichum orbiculare; 20 ppm in the applied formulation; liquid culture (PDB), growth inhibition measured photometrically 3 to 4 days after application; compared to untreated; read-out: disease control
Outline: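 Conidia from cryogenic storage were mixed into potato dextrose broth. This was added to compound diluted from DMSO into 0.025% Tween20, tested at 20 ppm. Plates were incubated in the dark at 24 °C and 96% relative humidity, and growth was read photometrically after 2–7 days as % activity versus untreated check.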

Uromyces viciae-fabae = Uromyces viciae-fabae / field bean / leaf disc preventative (faba-bean rust); type: in vivo; details: foliar, 288 h, 100 ppm in the applied formulation, field bean leaf discs, compared to untreated, read-out: disease control
Method: Leaf disks or leaf segments of various plant species are cut from plants grown in a greenhouse. The cut leaf disks or segments are placed in multiwell plates (24-well format) onto water agar. The leaf disks are sprayed with a test solution before (preventative) or after (curative) inoculation. Compounds to be tested are prepared as DMSO solutions (max. 10 mg/ml) which are diluted to the appropriate concentration with 0.025% Tween20 just before spraying. The inoculated leaf disks or segments are incubated under defined conditions (temperature, relative humidity, light, etc.) according to the respective test system. A single evaluation of disease level is carried out 3 to 14 days after inoculation, depending on the pathosystem. Percent disease control relative to the untreated check leaf disks or segments is then calculated. Field bean leaf discs are placed on water agar in multiwell plates (96-well format) and 10 μl of the formulated test compound diluted in acetone and a spreader pipetted onto the leaf disc. Two hours after application leaf discs are inoculated by spraying a spore suspension on the lower leaf surface. The leaf discs are incubated in a climate cabinet at 22° C. with 18 hour light/day and 70% relative humidity. The activity of a compound is assessed as percent disease control compared to untreated when an appropriate level of disease damage appears in untreated check leaf disks (12 days after application). The following compounds at 100 ppm in the applied formulation give at least 80% disease control in this test when compared to untreated control leaf discs under the same conditions, which show extensive disease development.

Phakopsora pachyrhizi = Phakopsora pachyrhizi / soybean / leaf disc preventative (Asian soybean rust); type: in vivo; details: foliar, 200 ppm in the applied formulation, soybean leaf disks, compared to untreated, read-out: disease control
Outline: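 Read-out is percent disease control relative to untreated check discs, assessed once untreated discs show adequate disease, 12 to 14 days after application. Compounds, tested at 200 ppm in the applied formulation, are sprayed onto soybean leaf discs one day before inoculation with a spore suspension.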

Row | melting point [°C] | Structure (SMILES) | pest or weed control at 200 ppm [1] [%] | pest or weed control at 200 ppm [2] [%] | inhibition of growth at 20 ppm [3] [%] | pest or weed control at 100 ppm (Uromyces viciae-fabae) [%] | pest or weed control at 200 ppm (Phakopsora pachyrhizi) [%]
1 | – | CCC(=O)NCc1ccc(-c2noc(C(F)(F)F)n2)cc1 [Compound 1.1, N-[[4-[5-(trifluoromethyl)-1,2,4-oxadiazol-3-yl]phenyl]methyl]propanamide] | ≥ 80 | ≥ 80 | ≥ 80 | ≥ 80 | ≥ 80
2 | 120 to 127 | CC(C)(C)C(=O)NCc1ccc(-c2noc(C(F)(F)F)n2)cc1 [Compound 1.2, 2,2-dimethyl-N-[[4-[5-(trifluoromethyl)-1,2,4-oxadiazol-3-yl]phenyl]methyl]propanamide] | ≥ 80 | ≥ 80 | ≥ 80 | ≥ 80 | ≥ 80
3 | 55 to 60 | C#CC(C)(C)C(=O)NCc1ccc(-c2noc(C(F)(F)F)n2)cc1 [Compound 1.3, 2,2-dimethyl-N-[[4-[5-(trifluoromethyl)-1,2,4-oxadiazol-3-yl]phenyl]methyl]but-3-ynamide] | ≥ 80 | ≥ 80 | ≥ 80 | ≥ 80 | ≥ 80
4 | – | C#CCCC(=O)NCc1ccc(-c2noc(C(F)(F)F)n2)cc1 [Compound 1.5, N-[[4-[5-(trifluoromethyl)-1,2,4-oxadiazol-3-yl]phenyl]methyl]pent-4-ynamide] | ≥ 80 | ≥ 80 | ≥ 80 | ≥ 80 | ≥ 80
5 | – | COCCC(=O)NCc1ccc(-c2noc(C(F)(F)F)n2)cc1 [Compound 1.11, 3-methoxy-N-[[4-[5-(trifluoromethyl)-1,2,4-oxadiazol-3-yl]phenyl]methyl]propanamide] | ≥ 80 | – | ≥ 80 | ≥ 80 | ≥ 80
6 | – | CC(C)(CCl)C(=O)NCc1ccc(-c2noc(C(F)(F)F)n2)cc1 [Compound 1.13, 3-chloro-2,2-dimethyl-N-[[4-[5-(trifluoromethyl)-1,2,4-oxadiazol-3-yl]phenyl]methyl]propanamide] | ≥ 80 | ≥ 80 | ≥ 80 | ≥ 80 | ≥ 80
7 | – | C=C(C)C(=O)NCc1ccc(-c2noc(C(F)(F)F)n2)cc1 [Compound 1.16, 2-methyl-N-[[4-[5-(trifluoromethyl)-1,2,4-oxadiazol-3-yl]phenyl]methyl]prop-2-enamide] | ≥ 80 | – | ≥ 80 | ≥ 80 | ≥ 80
8 | – | O=C(CCCCC(F)(F)F)NCc1ccc(-c2noc(C(F)(F)F)n2)cc1 [Compound 1.18, 6,6,6-trifluoro-N-[[4-[5-(trifluoromethyl)-1,2,4-oxadiazol-3-yl]phenyl]methyl]hexanamide] | ≥ 80 | – | – | ≥ 80 | ≥ 80
9 | – | CCC(COC)C(=O)NCc1ccc(-c2noc(C(F)(F)F)n2)cc1 (stereo not drawn) [Compound 1.19, 2-(methoxymethyl)-N-[[4-[5-(trifluoromethyl)-1,2,4-oxadiazol-3-yl]phenyl]methyl]butanamide] | ≥ 80 | ≥ 80 | ≥ 80 | ≥ 80 | ≥ 80
10 | – | N#CCC(=O)NCc1ccc(-c2noc(C(F)(F)F)n2)cc1 [Compound 1.22, 2-cyano-N-[[4-[5-(trifluoromethyl)-1,2,4-oxadiazol-3-yl]phenyl]methyl]acetamide] | ≥ 80 | ≥ 80 | – | ≥ 80 | ≥ 80
11 | 94 to 100 | COC(C)C(=O)NCc1ccc(-c2noc(C(F)(F)F)n2)cc1 (stereo not drawn) [Compound 1.23, 2-methoxy-N-[[4-[5-(trifluoromethyl)-1,2,4-oxadiazol-3-yl]phenyl]methyl]propanamide] | ≥ 80 | ≥ 80 | ≥ 80 | ≥ 80 | ≥ 80
12 | – | CCC(CC(=O)NCc1ccc(-c2noc(C(F)(F)F)n2)cc1)C(F)(F)F (stereo not drawn) [Compound 1.24, 3-(trifluoromethyl)-N-[[4-[5-(trifluoromethyl)-1,2,4-oxadiazol-3-yl]phenyl]methyl]pentanamide] | – | – | – | ≥ 80 | –

From US10501425B2, “Microbiocidal oxadiazole derivatives” (SYNGENTA PARTICIPATIONS AG, priority 2015, dated 2019)
